Source: ChEMBL document CHEMBL4651402, “Screening of ~5500 FDA-approved drugs and clinical candidates for anti-SARS-CoV-2 activity” (2021)

Test system: SARS-CoV-2
Assay: microbe, parasite or virus in culture
Conditions: Severe acute respiratory syndrome coronavirus 2, Vero C1008, 48 h

| Compound | IC50 | IC50 (read-out: pIC50 (converted)) |
| --- | --- | --- |
| C#C[C@]1(O)CC[C@H]2[C@@H]3CCC4=Cc5oncc5C[C@]4(C)[C@H]3CC[C@@]21C [DANAZOL] | > 20 µM | > 20 µM |
| CC(=O)OC1(c2ccccc2)CCN(CCc2ccccc2)CC1 | > 20 µM | > 20 µM |
| CN1CCC(=C2c3ccccc3C=Cc3ccccc32)CC1 [CYPROHEPTADINE] | > 20 µM | > 20 µM |
| C/C=C1/C[N+]2(C)CCC34C(=C(C=O)[C@H]1C[C@@H]32)Nc1ccccc14 (stereo not given in full) | > 20 µM | > 20 µM |
| CC(=O)Nc1ccc(S(=O)(=O)c2ccc(NC(C)=O)cc2)cc1 [ACEDAPSONE] | > 20 µM | > 20 µM |
| c1ccc2c(c1)Nc1ccccc1S2 [PHENOTHIAZINE] | > 20 µM | > 20 µM |
| CCC(=O)OC(CC(=O)O)C[N+](C)(C)C (stereo not given) | > 20 µM | > 20 µM |
| CNC(=O)NC(O)C(Cl)(Cl)Cl (stereo not given) [MECLORALUREA] | > 20 µM | > 20 µM |
| CCOC(=O)c1ccccc1OC(=O)CCCCCCCC(=O)Oc1ccccc1C(=O)OCC | > 20 µM | > 20 µM |
| CCN1CCc2nc(N)oc2CC1 [AZEPEXOLE] | > 20 µM | > 20 µM |
| c1ccc2c(c1)CCc1cccc3c1C2CN1CCCCC31 (stereo not given) [TACLAMINE] | > 20 µM | > 20 µM |
| CNC1(c2ccccc2Cl)CCCCC1=O (stereo not given) [KETAMINE] | > 20 µM | > 20 µM |
| Clc1ccc(N2CCN(C/C=C/c3ccccc3)CC2)nn1 [LORCINADOL] | > 20 µM | > 20 µM |
| Cc1cccc(-c2nn3c(c2-c2ccnc4ccc(C(N)=O)cc24)CCC3)n1 [GALUNISERTIB] | > 20 µM | > 20 µM |
| CN(C)Cc1c(C(=O)NCCOc2ccc(C(=O)NO)cc2)oc2ccccc12 [ABEXINOSTAT] | > 20 µM | > 20 µM |
| CC(=O)N[C@@H](CS)C(=O)O [ACETYLCYSTEINE] | > 20 µM | > 20 µM |
| CCOP(=S)(OCC)Oc1ccc2c(C)c(Cl)c(=O)oc2c1 [COUMAPHOS] | > 20 µM | > 20 µM |
| CC(C)C(Br)C(=O)NC(N)=O (stereo not given) [BROMISOVALUM] | > 20 µM | > 20 µM |
| CC1(C)S[C@@H]2[C@H](NC(=O)Cc3ccccc3)C(=O)N2[C@H]1C(=O)O [PENICILLIN G] | > 20 µM | > 20 µM |
| O=c1c(O)c(-c2ccccc2)oc2ccccc12 [FLAVONOL] | > 20 µM | > 20 µM |
| Nc1ncnc2c1ncn2[C@@H]1O[C@H](CO)C[C@H]1O [CORDYCEPIN] | > 20 µM | > 20 µM |
| O[C@](Cn1cncn1)(Cn1cnc(/C=C/c2ccc(OCC(F)(F)C(F)F)cc2)n1)c1ccc(F)cc1F | > 20 µM | > 20 µM |
| CN(C)CCC=C1c2ccccc2C(C)(C)c2ccccc21 | > 20 µM | > 20 µM |
| C[C@H](Cc1cc2c(c(C(N)=O)c1)N(CCCO)CC2)NCCOc1ccccc1OCC(F)(F)F [SILODOSIN] | > 20 µM | > 20 µM |
| CCC1(c2ccccc2)C(=O)NC(=O)NC1=O [PHENOBARBITAL] | > 20 µM | > 20 µM |
| CCN(CC)CC(C)(C)COC(=O)C(CO)c1ccccc1 (stereo not given) [AMPROTROPINE] | > 20 µM | > 20 µM |
| COc1ccc(C(=O)CC(=O)O)c2c1C=CC(C)(C)O2 [URSINOIC ACID] | > 20 µM | > 20 µM |
| NC(CSSCC(N)C(=O)O)C(=O)O (stereo not given) | > 20 µM | > 20 µM |

| Compound | IC50 | IC50 (read-out: pIC50 (converted)) |
| --- | --- | --- |
| CC(=O)O[C@H]1C[C@H](O[C@H]2[C@@H](O)C[C@H](O[C@H]3[C@@H](O)C[C@H](OC4CCC5(C)C(CCC6C5CCC5(C)C(C7=CC(=O)OC7)CCC65O)C4)O[C@@H]3C)O[C@@H]2C)O[C@H](C)[C@H]1O[C@@H]1O[C@H](CO)[C@@H](O)[C@H](O)[C@H]1O (stereo not given in full) | > 20 µM | > 20 µM |
| O=C(CCNNC(=O)c1ccncc1)NCc1ccccc1 [NIALAMIDE] | > 20 µM | > 20 µM |
| C[C@H]1CN(C2COC2)CCN1c1ccc(Nc2cc(-c3ccnc(N4CCn5c(cc6c5CC(C)(C)C6)C4=O)c3CO)cn(C)c2=O)nc1 [FENEBRUTINIB] | > 20 µM | > 20 µM |
| CC(C(=O)O)c1ccc2oc(-c3ccc(F)cc3)nc2c1 (stereo not given) | > 20 µM | > 20 µM |
| NCCOC[C@H](N)C(=O)O | > 20 µM | > 20 µM |
| O=C(O)CO [GLYCOLIC ACID] | > 20 µM | > 20 µM |
| C[C@H]1[C@H](OC(=O)CCC(=O)O)O[C@@H]2O[C@@]3(C)CC[C@H]4[C@H](C)CC[C@@H]1[C@@]24OO3 [ARTESUNATE] | > 20 µM | > 20 µM |
| C[N+]1(C)CCC(OC(=O)C(O)(c2ccccc2)C2CCCC2)C1 (stereo not given) [GLYCOPYRRONIUM] | > 20 µM | > 20 µM |
| CN(C)CC[C@H](CSc1ccccc1)Nc1ccc(S(=O)(=O)NC(=O)c2ccc(N3CCN(Cc4ccccc4-c4ccc(Cl)cc4)CC3)cc2)cc1[N+](=O)[O-] [ABT 737] | > 20 µM | > 20 µM |
| [O-][n+]1ccccc1S [PYRITHIONE] | > 20 µM | > 20 µM |
| C[C@]12CC[C@H](O)C[C@H]1CC[C@@H]1[C@@H]2CC[C@]2(C)[C@@](O)(c3ccoc3)CC[C@]12O [ROSTAFUROXIN] | > 20 µM | > 20 µM |
| COc1nc(C)nc(Cl)c1NC1=NCCN1 [MOXONIDINE] | > 20 µM | > 20 µM |
| CC(=O)c1ccc[nH]1 [2-ACETYLPYRROLE] | > 20 µM | > 20 µM |
| CC(C)(C)C(=O)Oc1ccc2c(c1)O[C@H](c1ccc(OCCN3CCCCC3)cc1)C1=C2COc2cc(OC(=O)C(C)(C)C)ccc21 | > 20 µM | > 20 µM |
| COc1ccc(-c2ccc(N)[n+](CCCC(=O)O)n2)cc1 | > 20 µM | > 20 µM |
| CC(=O)N[C@@H](CC(=O)N[C@H](CCC(=O)O)C(=O)O)C(=O)O | > 20 µM | > 20 µM |
| COc1cc([S+](C)[O-])ccc1-c1nc2cccnc2[nH]1 (stereo not given) [SULMAZOLE] | > 20 µM | > 20 µM |
| CCC(CC)CC1(C(=O)Nc2ccccc2SC(=O)C(C)C)CCCCC1 [DALCETRAPIB] | > 20 µM | > 20 µM |
| OC[C@H]1O[C@@H](Oc2cc(O)cc(/C=C/c3ccc(O)cc3)c2)[C@H](O)[C@@H](O)[C@@H]1O [PICEID] | > 20 µM | > 20 µM |
| CCc1oc2ccccc2c1C(=O)c1cc(I)c(O)c(I)c1 [BENZIODARONE] | > 20 µM | > 20 µM |
| CC(C)n1nc(-c2cccc(Cl)c2Cl)c(N)nc1=N [PALATRIGINE] | > 20 µM | > 20 µM |
| COCCNCc1ccc(-c2cc3nccc(Oc4ccc(NC(=S)NC(=O)Cc5ccc(F)cc5)cc4F)c3s2)nc1 [GLESATINIB] | > 20 µM | > 20 µM |
| CC(C(=O)O)c1ccc(C(=O)c2cccs2)cc1 (stereo not given) [SUPROFEN] | > 20 µM | > 20 µM |
| Cn1cc(-c2ccncc2)c(-c2ccc(OCc3ccc4ccccc4n3)cc2)n1 [MARDEPODECT] | > 20 µM | > 20 µM |
| CC(=O)Nc1ncc([N+](=O)[O-])s1 [NITHIAMIDE] | > 20 µM | > 20 µM |
| CN1[C@@H]2CC[C@H]1CC(NC(=O)n1c(=O)[nH]c3ccccc31)C2 (stereo not given in full) | > 20 µM | > 20 µM |
| COc1ccc(-c2nc(C(F)(F)F)sc2-c2ccc(OC)cc2)cc1 [ITAZIGREL] | > 20 µM | > 20 µM |
